From paper PMC10111423, “Antimalarial Imidazopyridines Incorporating an Intramolecular Hydrogen Bonding Motif: Medicinal Chemistry and Mechanistic Studies” (ACS Infectious Diseases, 2023)
Values after ≈ are worked out from the molar mass of the structure shown.

Key:
Solubility = format: physicochemical; conditions: pH 6.5, aqueous buffer
Source text: Table 1 In Vitro Antiplasmodium Activity, Cytotoxicity, BHIA, and Solubility | column: Solubility pH 6.5, μM

[1] = In vitro microsomal stability, rat liver microsomes; format: in vitro ADME; conditions: 1 μM, 0.4 mg/mL protein
Description: Xenotech, Kansas, USA), suspended in 0.1 M phosphate buffer (pH 7.4). (Details of this assay are described in the Supporting Information.) page 20: fold to attain six assay concentrations of 100-0.001 μg/mL. […] was used as the reference compound in this assay. The highest concentration of DMSO, which was used as the negative control, had no measurable effect on cell viability. After 44 hours of exposure of the cells to the test compounds, a solution of MTT was added. This was followed by an additional 4 hours of incubation at 37 °C. The assay plates were centrifuged, medium removed, and DMSO was added to the crystals. The amount of formazan was ascertained by measuring the absorbance at 540 nm. GraphPad Prism software was then used to generate IC50 values through a non-linear dose-response curve analysis. β-Hematin Inhibition Assay 20 mM stock solutions of controls and test compounds were made in DMSO. A solution […] was added to every well in columns 1-11 of a 96-well plate. 140 μL of water and 40 μL of 305.5 μM NP-40 were added to column 12 to mediate the formation of beta-hematin. 20 μL of test compounds (20 mM) were added to column 12 and 100 μL of this solution serially diluted to column 2, leaving column 1 blank (0 μM of test compound). 178.8 μL aliquot of hematin stock was suspended in 20 ml of a 1 M acetate buffer at pH 4.9. 100 μL of this hematin suspension was then added into each well, and the plates were incubated for ±5 hrs at 37°C. Subsequently, 32 μL of pyridine solution (20% water, 20% acetone, 10% 2M HEPES buffer at pH 7.4 and 50% pyridine) and 60 μL of acetone were added to all wells. The absorbances of plate wells were recorded at 405 nm on a SpectraMax plate reader. Sigmoidal dose-response curves with variable slopes were fitted to the absorbance data using GraphPad Prism to obtain the IC50 values for each compound. In vitro Microsomal Stability Assay The in vitro microsomal stability assay was performed in duplicate in a 96-well micro titre […] individually in human (pool of 50, mixed gender), rat (pool of 711, male Sprague Dawley) and mouse (pool of 1634, male CD1) liver microsomes (final protein concentration of 0.4 mg/mL; Xenotech, Kansas, USA), suspended in 0.1M phosphate buffer (pH 7.4). Incubations were S20 page 21: started by addition of NADPH (1 mM) as cofactor and shaken for 30 minutes at 37 °C. The reactions were then quenched by adding 300 μL of ice-cold acetonitrile containing internal standard (carbamazepine, 0.0236 μg/mL) and centrifuged. The supernatant was transferred to a fresh 96-well plate and analysed by LC-MS/MS (Agilent Rapid Resolution HPLC, AB SCIEX 4500 MS). The relative loss of parent compound over time was monitored and plots (concentration vs. time) were prepared per compound to determine the first order rate constant for compound depletion. This was in turn used to calculate half-life, in vitro intrinsic clearance and in vivo hepatic extraction ratio.6 Metabolite Identification Studies […] microsomes (MLM, male mouse CD1, Lot No. 1510043, Xenotech), magnesium chloride (5 mM) and NADPH (1 mM) in sodium phosphate buffer (100 mM, pH 7.4) for 60 minutes while shaking. The samples were then prepared by ice-cold acetonitrile precipitation, centrifuged, and filtered for LC-MS/MS analysis. […] Fluorescence Live-cell Microscopy […] […]

Compound | solubility (Solubility) | Microsomal EH (hepatic extraction ratio), rat [1]
CCN(CCNc1cc2[nH]c(-c3cccc(C(F)(F)F)c3)nc2cn1)Cc1ccc(Cl)cc1O [Compound 14, 5-Chloro-2-((ethyl(2-((2-(3-(trifluoromethyl)phenyl)-1H-imidazo[4,5-c]pyridin-6-yl)amino)ethyl)amino)methyl)phenol] | 65 µM (≈ 31.8 µg/mL) | 0.70
CCN(CCNc1cc2[nH]c(-c3ccc(C(F)(F)F)nc3)nc2cn1)Cc1ccc(Cl)cc1O [Compound 19, 5-Chloro-2-((ethyl(2-((2-(6-(trifluoromethyl)pyridin-3-yl)-1H-imidazo[4,5-c]pyridin-6-yl)amino)ethyl)amino)methyl)phenol] | 140 µM (≈ 68.7 µg/mL) | 0.78

Other lines, results leading:

solubility (Solubility) | Microsomal EH (hepatic extraction ratio), rat [1] | Compound
25 µM (≈ 9.65 µg/mL) | 0.73 | CCN(CCNc1cc2[nH]c(C3CC3)nc2cn1)Cc1ccc(Cl)cc1O [Compound 5, 5-Chloro-2-(((2-((2-cyclopropyl-1H-imidazo[4,5-c]pyridin-6-yl)amino)ethyl)(ethyl)amino)methyl)phenol]
200 µM (≈ 80 µg/mL) | 0.73 | CCN(CCNc1cc2[nH]c(C3(C)CC3)nc2cn1)Cc1ccc(Cl)cc1O [Compound 6, 5-Chloro-2-((ethyl(2-((2-(1-methylcyclopropyl)-1H-imidazo[4,5-c]pyridin-6-yl)amino)ethyl)amino)methyl)phenol]
15 µM (≈ 6.21 µg/mL) | 0.75 | CCN(CCNc1cc2[nH]c(C3CCCC3)nc2cn1)Cc1ccc(Cl)cc1O [Compound 1, 5-Chloro-2-(((2-((2-cyclopentyl-1H-imidazo[4,5-c]pyridin-6-yl)amino)ethyl)(ethyl)amino)methyl)phenol]
